Key:
centrosomes in cells = assay: Cellular centrosome depletion (cell line not stated); assay type: cell-based; settings: cellular activity, FIG. 1A
Procedure: Centriole depletion assay for compound screening. 1,500 NIH/3T3 cells or 3,500 HCT116 cells were seeded into 96-well SCREENSTAR microplates (Greiner) and treated with inhibitors in dose response, added from DMSO stocks. After 3 days, cells were fixed directly in the wells with 100% methanol (−20° C., 10 minutes). The fixed cells were washed with PBS and stained with primary antibodies against γ-tubulin and, for a subset of compounds, Cep192. Cells were then stained with Alexa-488 donkey anti-mouse and Alexa-647 goat anti-rabbit secondary antibodies. Cells were imaged using either a Model 500 LumaScope (Etaluma) or an EVOS FL (Advanced Microscopy Group/Life Technologies), and centriole depletion was determined by scoring the percentage of cells without visible γ-tubulin/Cep192 foci.

RPE1 cells = assay: Passaging assay and flow cytometry, RPE1; assay type: cell-based, human
Procedure: Passaging assays. Cells were seeded into 10 cm tissue culture plates at 150,000 (HeLa, NIH/3T3 and RPE1) or 200,000 cells/plate (primary fibroblasts). Compounds were added at the indicated concentrations. At 4-day intervals, cells were harvested, counted using a TC10 cell counter, and re-seeded into new plates at the densities above. Results are from 2 independent experiments.
Flow cytometry. Cells were seeded into 15 cm tissue culture plates such that each plate was 50-80% confluent at the time of harvesting. Cells were de-adhered by trypsinization and pelleted in 15 ml tubes by centrifugation. Each pellet was resuspended in 0.3 mL PBS, and 0.7 mL ice-cold 100% ethanol was added to the tube while gently vortexing. Fixed cells were stored at 4° C. for up to 2 weeks. For DNA content analysis, fixed cells were pelleted, washed twice with PBS, and resuspended in 0.5 mL PBS+2% BSA and Alexa488-conjugated anti-p-H3(Ser10) antibody. Samples were incubated for 1 hour at 4° C., then washed twice with PBS+2% BSA. Pellets were resuspended in 1 mL PBS+2% BSA, 10 μg/ml propidium iodide (Sigma-Aldrich), 500 µg/ml RNAse A (Thermo Scientific). Samples were incubated at 37° C. for 30 minutes, then transferred to 12×75 mm tubes for analysis. Data were acquired using FACSDiva software on a LSR II flow cytometer (BD Biosciences). 50,000 cells were analyzed per condition. Cell cycle fitting was performed using ModFit LT (Verity Software House).

NIH/3T3 cells [1] = assay: Cilia formation assay in NIH/3T3 cells; assay type: cell-based, mouse; settings: serum-starved NIH/3T3
Procedure: Cilia formation assay in NIH/3T3 cells. […] Cells were seeded onto coverslips and starved for 40 hours by replacing their media with DMEM+0.5% defined bovine serum. Cells were then washed with PBS, fixed with 100% methanol (−20° C., 5 minutes), stained with antibodies against γ-tubulin and IFT-88, and mounted onto slides. Image acquisition and deconvolution were performed on the DeltaVision system, as above. Subsequent image processing was performed in ImageJ.

NIH/3T3 cells [2] = assay: Microtubule regrowth assay, NIH/3T3; assay type: cell-based, mouse; settings: NIH/3T3, 5 minutes after washout
Procedure: Microtubule regrowth assay. […] Cells were seeded onto coverslips in 12-well plates and treated with 16 μM nocodazole for 4 hours to depolymerize microtubules. Wells were washed 6 times with PBS to remove the nocodazole, and fresh, pre-warmed medium was added to each well. After 5 minutes of recovery, cells were fixed with 100% methanol (−20° C., 5 minutes) and stained with antibodies against γ-tubulin and α-tubulin. Coverslips were mounted onto slides and imaged on a DeltaVision microscope (Applied Precision) with a 60×1.42 NA PlanApo objective and CoolSnap camera (Photometrics). Image deconvolution was performed in softWoRx (Applied Precision) and subsequent processing was performed in ImageJ (NIH).

NIH/3T3 cells [3] = assay: Analysis of mitosis, NIH/3T3 centrin-GFP H2B-RFP; assay type: cell-based, mouse; settings: centrosome-less NIH/3T3 cells
Procedure: (§1) Analysis of mitosis and daughter cell fate. […] Cells were seeded into 96-well cycloolefin plates at 5000 cells/well, 8-10 hours before imaging. Movies were acquired on the CV1000 with a 40×0.95 NA U-PlanApo objective. The imaging chamber was maintained at 37° C. and 5% CO2. Image acquisition and data analysis were performed using CellVoyager software. 20 fields/well were imaged. For HeLa and NIH/3T3 cells, 5×2 μm z-sections in the GFP (25% power, 125 ms, 30% gain) and RFP (25% power, 100 ms, 30% gain) channels were captured in each field, at 5-minute intervals for 24 hours. For RPE1 cells, 5×2 μm z-sections in the GFP (20% power, 100 ms, 30% gain) and RFP (25% power, 100 ms, 30% gain) channels were captured in each field, at 5-minute intervals for 8 hours. To track RPE1 daughter cell fate, imaging was then switched to 3×4 μm z-sections in the RFP channel only, at 10-minute intervals for 48 hours. Mitosis was measured from nuclear envelope breakdown to anaphase onset (or arrest). Results represent combined measurements of 100 mother cells per condition from 2-4 independent experiments.

Plk4 = Plk4 intensity at centrosomes, HeLa; assay type: cell-based, human; settings: 125 nM, 8 hours
Text: FIGS. 13A-13D. Centriole number set points arise from a dynamic equilibrium between centriole overduplication and removal of cells with extra centrioles. […] Yellow arrowheads mark centrin foci. Each frame was acquired at NEBD when the centrosomes are optimally distributed for counting. Times in the bottom left of each panel are in minutes relative to NEBD in the mother cell. Scale bar, 10 μm. (FIG. 13B) Histogram of mitotic outcomes for HeLa cells with <2, 2 or >2 centrosomes. The fates of daughter cells arising from 2-centrosome bipolar mitosis, multi-centrosome bipolar mitosis, and multi-centrosome multipolar mitosis are shown below. Data are mean+/−SD (N=2). […] Intervals are based on the time of NEBD in the mother cells. The diagonal line represents the 2:1 ratio expected under normal conditions; points above or below this line correspond to over- or under-duplication, respectively. […] Boxed regions are magnified 2.3× in panels below. Scale bar, […]. The Plk4 intensity at centrosomes was quantified and normalized to the intensity in untreated cells. Data are mean+/−SD (N=3).

NIH/3T3 cells [4] = assay: Proliferation assay, NIH/3T3; assay type: cell-based, mouse
Procedure: Proliferation assays. For each condition, cells were seeded in triplicate into 6-well plates at 50,000 cells/well. Compounds were added at the indicated concentrations. At 24-hour intervals, 3 wells were harvested per condition. Cell counting was performed using a TC10 automated cell counter (Bio-Rad). Results are from 3 independent experiments.

HeLa cells = assay: Analysis of mitosis, HeLa centrin-GFP H2B-RFP; assay type: cell-based, human; settings: centrosome-less HeLa cells
Procedure: as §1

COc1c(Nc2cc(C)[nH]n2)nc(Sc2ccc(S(=O)(=O)Cc3cccc([N+](=O)[O-])c3F)cc2F)nc1N1CCOCC1 [Centrinone, 2-((2-fluoro-4-((2-fluoro-3-nitrobenzyl)sulfonyl)phenyl)thio)-5-methoxy-N-(5-methyl-1H-pyrazol-3-yl)-6-morpholinopyrimidin-4-amine]
centrosome depletion at (centrosomes in cells): 100 nM | cell cycle after centrosome depletion (RPE1 cells; RPE1, 12-day passaging assay and flow cytometry): cell cycle arrest in G1 | proliferation after washout (RPE1 cells; RPE1, addition Day 0, washout Day 8): did not | primary cilia (NIH/3T3 cells [1]): prevents assembly of primary cilia | microtubule organization after nocodazole washout (NIH/3T3 cells [2]): short microtubules form throughout the cytoplasm | increase in mitotic duration (NIH/3T3 cells [3]): ~20 min | Plk4 level at the centrosome (Plk4): double | proliferation versus controls (NIH/3T3 cells [4]; NIH/3T3, first two days after addition): identical to controls | cell death per generation explaining reduced proliferation rate (NIH/3T3 cells [4]; centrosome-less NIH/3T3, theoretical curves versus measurements): 15% | cells undergoing persistent mitotic arrest (HeLa cells): 24% | increase in mitotic duration (HeLa cells): ~1 h

Source: patent US10752612B2, “PLK4 inhibitors” (LUDWIG INSTITUTE FOR CANCER RESEARCH LTD, priority 2015, dated 2020)
